{"source": "paper PMC6221475", "about": "(Bioorganic & medicinal chemistry letters, 2018)", "key": {"VAChT [1]": {"system": "VAChT", "conditions": "cited from earlier work"}, "VAChT [2]": {"molecular_target": "T1, VAChT (Homo sapiens, UniProt Q16572)", "T1 sequence (Q16572 1-532)": "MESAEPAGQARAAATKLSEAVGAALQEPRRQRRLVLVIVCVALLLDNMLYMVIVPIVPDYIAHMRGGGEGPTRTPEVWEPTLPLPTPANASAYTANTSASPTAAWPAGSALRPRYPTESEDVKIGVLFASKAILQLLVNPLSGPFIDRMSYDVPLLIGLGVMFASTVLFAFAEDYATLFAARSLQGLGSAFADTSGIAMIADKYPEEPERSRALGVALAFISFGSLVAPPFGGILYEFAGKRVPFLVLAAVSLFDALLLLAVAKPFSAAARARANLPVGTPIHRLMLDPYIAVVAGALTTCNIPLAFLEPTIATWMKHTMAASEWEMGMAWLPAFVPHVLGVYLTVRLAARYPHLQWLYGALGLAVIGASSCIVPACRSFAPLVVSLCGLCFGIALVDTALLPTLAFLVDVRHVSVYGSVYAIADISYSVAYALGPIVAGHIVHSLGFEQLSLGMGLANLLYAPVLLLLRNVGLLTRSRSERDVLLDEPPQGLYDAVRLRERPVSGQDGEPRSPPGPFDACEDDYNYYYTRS", "assay": "VAChT competitive binding assay with tritiated vesamicol", "conditions": "read-out: Ki-VAChT; tritiated vesamicol as competitive radioligand"}, "σ1 receptors": {"molecular_target": "σ1 receptors", "assay": "σ1 receptor in vitro binding assay with [3H]pentazocine"}, "σ2 receptors": {"molecular_target": "σ2 receptors", "assay": "σ2 receptor in vitro binding assay with [3H]DTG"}, "VAChT [3]": {"system": "VAChT", "conditions": "cited from earlier work", "remark": "listed apart in the source"}}}
{"smiles": "OC1Cc2cccc(OCC[18F])c2CC1N1CCC(c2ccccc2)CC1", "note": "(single isomer, unassigned; (-)) [[^18F]FEOBV, (−)-5-[^18F]fluoroethoxybenzovesamicol]", "values": [{"measurement": "time required to equilibrate in the striatum", "setting": "VAChT [1]; human, PET, ref [11], [16], [17]", "value": "over 6 h"}]}
{"smiles": "O=C(c1ccc(F)cc1)C1CCN(C2Cc3c(O)cccc3CC2O)CC1", "note": "(single isomer, unassigned; (-)) [(−)-1, (−)-(1-(3,8-Dihydroxy-1,2,3,4-tetrahydronaphthalen-2-yl)piperidin-4-yl)(4-fluorophenyl)methanone]", "values": [{"measurement": "Ki", "setting": "VAChT [2]", "value": "4.62 ± 0.22", "unit": "nM"}, {"measurement": "Ki", "setting": "σ1 receptors; read-out: Ki-σ1, [3H]pentazocine as radioligand", "value": "2010 ± 450", "unit": "nM"}, {"measurement": "VAChT/σ1", "setting": "σ1 receptors; selectivity ratio for VAChT over σ1", "value": 435}, {"measurement": "Ki", "setting": "σ2 receptors; read-out: Ki-σ2, [3H]DTG as radioligand", "value": "> 10", "unit": "µM"}, {"measurement": "VAChT/σ2", "setting": "σ2 receptors; selectivity ratio for VAChT over σ2", "value": 2165}]}
{"smiles": "O=C(c1ccc(F)cc1)C1CCN(C2Cc3c(cccc3OCC[18F])CC2O)CC1", "note": "(single isomer, unassigned; (-)) [[^18F]VAT, (−)-(1-(8-(2-[^18F]fluoroethoxy)-3-hydroxy-1,2,3,4tetrahydro-naphthalen-2-yl)-piperidin-4-yl)(4-fluorophenyl)-methanone]", "values": [{"measurement": "standardized uptake value (SUV) at peak uptake", "setting": "VAChT [3]; NHP brain, at 15 min, ref [23]", "value": 5.1}, {"measurement": "uptake ratio of target (striatum) to non-target (cerebellum)", "setting": "VAChT [3]; NHP brain, ref [23]", "value": 3.0}, {"measurement": "time of peak uptake in the brain", "setting": "VAChT [3]; in vivo", "value": 15, "unit": "min"}]}
{"smiles": "OC1Cc2cccc([123I])c2CC1N1CCC(c2ccccc2)CC1", "note": "(single isomer, unassigned; (-)) [[^123I]IBVM, (−)-5-[^123I]iodo-benzovesamicol]", "values": [{"measurement": "time of peak uptake in the target regions post-injection", "setting": "VAChT [1]; human subjects, SPECT, ref [10], [13]–[15]", "value": "at least 6 h"}]}
